Source: patent publication US20100210597A1, “C21-Deoxy Ansamycin Derivatives as Antitumor Agents” (priority 2007, published 2010)
Values joined by “and” are separate entries in the source; they are usually repeats but may differ in a detail not shown here. Equal entries are not always repeated.

Columns and labels:
[1] = Aqueous solubility by direct dissolution; assay type: physicochemical; conditions: water, deionised water; limit not tested
Text: It is not possible to measure the solubility of 20 and 23 by this method due to their intrinsic high aqueous solubility.

[2] = Whole blood cleavage assay, human blood; assay type: in vitro ADME; conditions: 10 uM, 37° C., two hours
Protocol: Human whole blood (single donor, batch HBE4534) was obtained from First Link UK Ltd. Mouse whole blood (pool of 10, batch 07-2470) was obtained from Harlan UK. Blood was collected into tubes containing EDTA as anticoagulant and shipped on ice. Blood was used on the day of arrival. In the case of human whole blood incubations were undertaken both on the fresh blood and also after freezing the blood followed by thawing. Control compounds were Lidocaine, Bisacodyl and Simvastatin.
All test compounds were incubated at 10 uM in whole blood at 37° C. At selected time points, 0.1 ml of blood was mixed with 0.3 ml of acetonitrile and vortexed immediately. All samples were centrifuged and supernatant were diluted with same volume of deionized water. […] For 20 sample analysis, mass spectrometry monitored both 17 and 20. […]
The Half life, for the disappearance of 20, was determined according to the relationship: […]
Blood cleavage assays were run to confirm that 20 acts as a prodrug and cleaves to produce compound 17 when incubated with human and mouse blood, as described in the general methods. The compound was incubated in human or mouse blood with samples removed over two hours, and analysed by LC MS/MS for presence of 20 and 17 (see FIG. 6). […] Due to the differing responses of 17 and 20 on mass spectrometry it was not possible to quantify the extent of conversion of 20 to 17.

LXF 1121L = assay: Monolayer proliferation assay (modified propidium iodide), LXF 1121L; assay type: cell-based, human; conditions: average of 2 experiments
Protocol: (§1) In vitro evaluation of compounds for anticancer activity in a panel of human tumour cell lines in a monolayer proliferation assay was carried out at the Oncotest Testing Facility, Institute for Experimental Oncology, Oncotest GmbH, Freiburg.
(§2) The Oncotest cell lines are established from human tumor xenografts as described by Roth et al., (1999). The origin of the donor xenografts is described by Fiebig et al., (1999). Other cell lines are either obtained from the NCl (DU145, MCF-7) or purchased from DSMZ, Braunschweig, Germany.
(§3) All cell lines, unless otherwise specified, are grown at 37° C. in a humidified atmosphere (95% air, 5% CO2) in a ‘ready-mix’ medium containing RPMI 1640 medium, 10% fetal calf serum, and 0.1 mg/mL gentamicin (PAA, Cölbe, Germany).
(§4) A modified propidium iodide assay was used to assess the effects of the test compound(s) on the growth of six human tumour cell lines (Dengler et al., (1995)).
(§5) Briefly, cells are harvested from exponential phase cultures by trypsinization, counted and plated in 96 well flat-bottomed microtitre plates at a cell density dependent on the cell line (5-10.000 viable cells/well). After 24 h recovery to allow the cells to resume exponential growth, 0.010 mL of culture medium (6 control wells per plate) or culture medium containing macbecin were added to the wells. Each concentration is plated in triplicate. Compounds were applied in two concentrations (0.001 mM and 0.01 mM). Following 4 days of continuous exposure, cell culture medium with or without test compound was replaced by 0.2 mL of an aqueous propidium iodide (P1) solution (7 mg/L). To measure the proportion of living cells, cells were permeabilized by freezing the plates. After thawing the plates, fluorescence was measured using the Cytofluor 4000 microplate reader (excitation 530 nm, emission 620 nm), giving a direct relationship to the total number of viable cells.
(§6) Growth inhibition is expressed as treated/control×100 (% T/C).
(§7) In vitro evaluation of the test compound, 20, for anticancer activity in a panel of human tumour cell lines in a monolayer proliferation assay was carried out as described in the general methods using a modified propidium iodide assay.

MEXF 394NL = assay: Monolayer proliferation assay (modified propidium iodide), MEXF 394NL; assay type: cell-based, human; conditions: average of 2 experiments
Protocol: as §1, §2, §3, §4, §5, §6, §7

[3] = In vivo pharmacokinetic assay in mice; design: species or system mouse; conditions: female CD-1 mice
Protocol: The test compound was prepared directly in endotoxin free water. A single dose of 10 mg/kg p.o. or 3 mg/kg i.v. was administered to groups of female CD1 mice (3 mice for each compound per time point). Dose volumes were 10 mL/kg for both oral and intravenous administration. At 4 minutes and 0.25, 0.5, 1, 2, 4, 8, 24 hours groups were sacrificed and plasma was collected from each mouse for further analysis. For oral dosing, a single dose of Test Article was administered via oral gavage to the mice. For intravenous dosing, a single dose of Test article was administered intravenously to mice via the tail veins.
The concentration of the relevant compounds in the plasma samples was determined by HPLC with MS detection.
• Mass spectrometer: API 3200 Q Trap triple quadruple mass spectrometer • Liquid chromatography: Agilent 1200/PAL HTC Autosampler • Ionization Mode: Electrospray (may be changed depending on the TA) • Monitoring: Multiple Reaction Monitoring • LC chromatography BetaBastic-8, 50×2.1 mm, 5 μm (may separation: be changed depending on the TA)
Based on the peak area ratios of test article to an internal standard, 17-Methoxyethylamino Geldanamycin (Schnur et al., 1995), concentrations of an unknown sample were obtained by a calibration curve.
Test plasma sample (0.05 ml), analyte free mouse whole serum (0.05 ml), internal standard solution (0.1 ml of 10 mg/mL 17-Methoxyethylamino geldanamycin (Schnur et al., 1995) dissolved in methanol) and acetonitrile (0.5 ml) were pipetted into a 2-mL polypropylene tube and the contents of the tubes were mixed for a minimum of 5 minutes (Vibrax mixer). The tubes were then centrifuged in a microfuge for a minimum of 2 minutes at 12,000 rpm. 0.1 ml of the solvent layer was transferred into a 2-mL polypropylene tube containing 1 mL acid diluent (0.1% formic acid). The tubes were then mixed for a minimum of 5 minutes (Vibrax mixer) and then centrifuged at approximately 3500 rpm for 5 minutes. The extracts were transferred to auto-sampler vials and placed in the auto sampler tray which was set at ambient temperature. The auto-sampler was programmed to inject a 0.005 ml aliquot of each extract onto the analytical column.
In vivo confirmation of the cleavage of 20 to the parent molecule, 17, was carried out as described in the general methods.
Female CD-1 mice were given single doses of 20, either intravenously at 3 mg/kg, or orally at 10 mg/kg. Plasma samples were then collected at 8 time points (0.067, 0.25, 0.5, 1, 2, 4, 8 and 24 h postdose) over a 24-h period. The amounts of 20 and 17 in the samples were then analysed. […] After iv administration, 20 was only detected up to 0.25 hours after dosing, whilst 17 was detected up to 4 hours after dosing.

## CO[C@H]1C[C@H](C)Cc2cc(cc(OP(=O)(O)O)c2)NC(=O)/C(C)=C/CC[C@H](C)[C@@H](OC(N)=O)/C(C)=C/[C@H](C)[C@H]1O [Compound 20, 4,5-dihydro-11-O-demethyl-15-demethoxy-18,21-didehydro-21-deoxomacbecin-18-phosphate]
[1]
  solubility: ≥ 10000 µg/mL and ≥ 17000 µM
[2]
  conversion in blood: act as a prodrug and release 17
LXF 1121L; 0.01 μg/mL
  Test/Control (%) at drug concentration (μg/mL): 103%
LXF 1121L; 0.1 μg/mL
  Test/Control (%) at drug concentration (μg/mL): 58%
LXF 1121L; 1 μg/mL
  Test/Control (%) at drug concentration (μg/mL): 15%
LXF 1121L; 10 μg/mL
  Test/Control (%) at drug concentration (μg/mL): 14%
LXF 1121L; 100 μg/mL
  Test/Control (%) at drug concentration (μg/mL): 5%
MEXF 394NL; 0.01 μg/mL
  Test/Control (%) at drug concentration (μg/mL): 102%
MEXF 394NL; 0.1 μg/mL
  Test/Control (%) at drug concentration (μg/mL): 50%
MEXF 394NL; 1 μg/mL
  Test/Control (%) at drug concentration (μg/mL): 17%
MEXF 394NL; 10 μg/mL
  Test/Control (%) at drug concentration (μg/mL): 16%
MEXF 394NL; 100 μg/mL
  Test/Control (%) at drug concentration (μg/mL): 3%
[3]; single intravenous dose of 20 at 3 mg/kg
  detected in plasma up to (time after dosing): up to 0.25 hours
[3]; single oral dose of 20 at 10 mg/kg
  detected in plasma up to (time after dosing): not seen in the plasma
